Laboratory results reported in patent US7652020B2, “Compounds for the treatment of inflammatory disorders” (Schering Corporation, priority 2004, dated 2010).

biological target: T1, purified catalytic domain of recombinant human TACE (rhTACEc) (Homo sapiens, UniProt P78536, N452Q/S266A); experiment: TACE kinetic assay: cleavage of internally quenched peptide substrate SPDL-3, fluorescence; assay type: biochemical; settings: TACE inhibitory activity, class symbols; read-out: Ki
T1 construct: Residue 215 to 477 with two mutation (S266A and N452Q) and a 6×His tail; 6xHis (C); made in house; host or cells: baculovirus/Hi5 insect cells
T1 sequence (P78536 215-477 S266A/N452Q): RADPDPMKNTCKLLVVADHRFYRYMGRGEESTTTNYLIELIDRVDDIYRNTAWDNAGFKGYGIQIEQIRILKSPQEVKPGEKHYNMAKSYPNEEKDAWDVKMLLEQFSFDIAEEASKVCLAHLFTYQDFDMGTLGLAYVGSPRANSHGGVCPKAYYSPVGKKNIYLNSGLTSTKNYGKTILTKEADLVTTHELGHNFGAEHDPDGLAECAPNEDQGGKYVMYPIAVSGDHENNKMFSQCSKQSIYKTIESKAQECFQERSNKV
Protocol: TACE activity is determined by a kinetic assay measuring the rate of increase in fluorescent intensity generated by TACE catalyzed cleavage of an internally quenched peptide substrate (SPDL-3). […] It is purified from the baculovirus/Hi5 cells expression system using affinity chromatography. […] MCA is (7-Methoxycoumarin-4-yl)acetyl. Dpa is N-3-(2,4-Dinitrophenyl)-L-2,3-diaminopropionyl.
A 50 μl assay mixture contains 20 mM HEPES, pH 7.3, 5 mM CaCl2, 100 μM ZnCl2, 2% DMSO, 0.04% Methylcellulose, 30 μM SPDL-3, 70 pM rhTACEc and a test compound. RhTACEc is pre-incubated with the testing compound for 90 min. at 25° C. Reaction is started by addition of the substrate. […] Rate of enzymatic reaction is shown as Units per second. Effect of a test compound is shown as % of TACE activity in the absence of the compound.

Ki, 20 to 100 nM:
C[C@@H](NC(=O)[C@H](O)[C@@H](O)C(=O)N1CCC[C@@H]1c1csc(N2CCCCC2)n1)c1ccc(-n2cccn2)cc1 [Compound 2258], C[C@@H](NC(=O)[C@H](O)[C@@H](O)C(=O)N1CCOCC1)c1ccc(-n2cccn2)cc1 [Compound 2422], C[C@@H](NC(=O)[C@H](O)[C@@H](O)C(=O)N1CC(C)(C)CC1(C)c1cccc(Cl)c1)c1ccc(-n2cccn2)cc1 (some centres unmarked) [Compound 2238], O=C(NCc1ccc(-c2ccccc2OCCC2CCCC2)cc1)[C@H](O)[C@@H](O)C(=O)N1CCCC1 [Compound 2339], C[C@@H](NC(=O)[C@H](O)[C@@H](O)C(=O)N1CCc2ccccc21)c1ccc(-n2cccn2)cc1 [Compound 2441], C[C@@H](NC(=O)[C@H](O)[C@@H](O)C(=O)N1CCCCC1c1cccc(Cl)c1)c1ccc(-n2cccn2)cc1 (some centres unmarked) [Compound 2415], C[C@@H](NC(=O)[C@](C)(O)[C@@H](O)C(=O)N1Cc2cccnc2C1)c1ccc(-n2cccc2C#N)cc1 [Compound 2354], CC1c2cncnc2CN1C(=O)[C@H](O)[C@@H](O)C(=O)N[C@H](C)c1ccc(-n2cccn2)cc1 (some centres unmarked) [Compound 2050], C[C@@H](NC(=O)[C@H](O)[C@@H](O)C(=O)N1CCc2[nH]ncc2C1)c1ccc(-n2cccn2)cc1 [Compound 2073]

Ki, 100 to 1000 nM:
C[C@@H](NC(=O)[C@H](O)[C@@H](O)C(=O)N1CCCN1c1cccc(Cl)c1)c1ccc(-n2cccn2)cc1 [Compound 2495], C[C@@H]1CCC[C@H](C)N1C(=O)[C@H](O)[C@@H](O)C(=O)N[C@H](C)c1ccc(-n2cccn2)cc1 [Compound 2409], C[C@@H](NC(=O)[C@H](O)[C@@H](O)C(=O)N1C2CCC1CC2)c1ccc(-n2cccn2)cc1 [Compound 2095], N#Cc1cc(F)ccc1N1[C@@H]2CC[C@H]1CC(CNC(=O)[C@H](O)[C@@H](O)C(=O)N1Cc3ccccc3C1)C2 (some centres unmarked) [Compound 2149], CCOc1cc(F)ccc1-c1ccc(CNC(=O)[C@H](OC)[C@@H](O)C(=O)N2Cc3cccnc3C2)cc1 [Compound 2477], Cn1ccnc1[C@H](O)[C@@](C)(O)C(=O)NCC1CCN(c2ccc(F)cc2C#N)CC1 [Compound 2395], C[C@@H](NC(=O)[C@H](O)[C@@H](O)C(=O)N1CCN(c2ccccc2)C(=O)C1)c1ccc(-n2cccn2)cc1 [Compound 2425], C[C@@H](NC(=O)[C@](C)(O)[C@@H](O)C(=O)N1Cc2cccnc2C1)c1ccc(-c2cccc(OCCC3CCCCC3)c2)cc1 [Compound 2353A], C[C@@H](NC(=O)[C@H](O)[C@@H](O)C(=O)N1CC2CC1CN2c1ccc(Cl)cc1)c1ccc(-n2cccn2)cc1 (some centres unmarked) [Compound 2099]

Ki, > 1000 nM:
C[C@@H](NC(=O)[C@H](O)[C@@H](O)C(=O)N1Cc2cccnc2C1)c1cccc(O)c1 [Compound 2307], N#Cc1ccccc1N1CCC2(CC1)CC2NC(=O)[C@H](O)[C@@H](O)C(=O)N1Cc2ccccc2C1 (some centres unmarked) [Compound 2155], C[C@H](c1ccc(-n2cccn2)cc1)N1CCO[C@H]([C@@H](O)C(=O)N2Cc3ccccc3C2)C1=O [Compound 2474], O=C(NCc1ccc(-c2ccccc2OC(F)(F)F)cn1)[C@H](O)[C@@H](O)c1ccccn1 [Compound 2398], C[C@@H](NC(=O)[C@](C)(O)[C@@H](O)C(=O)N1CCCCC1c1ccccc1)c1ccc(-n2cccn2)cc1 (some centres unmarked) [Compound 2411], N#Cc1cc(F)ccc1N1CCC(CNC(=O)[C@H](O)[C@@H](N)C(=O)N2CCCC2)CC1 [Compound 2456], Cc1nnc([C@H](O)[C@@H](O)C(=O)NCC2CCN(c3ccc(F)cc3C#N)CC2)n1C [Compound 2399], C[C@@H](NC(=O)[C@H](O)[C@@H](O)C(=O)N1C2CCC1c1cncnc1C2)c1ccc(-n2cccn2)cc1 (some centres unmarked) [Compound 2093], COc1nc(CNC(=O)[C@H](O)[C@@H](O)C(=O)N2CCCC2)ccc1-c1ccccc1OC(F)(F)F [Compound 2346]

Ki, < 20 nM:
C[C@@H](NC(=O)[C@H](O)[C@@H](O)C(=O)N1CCC[C@@H]1c1csc(NS(C)(=O)=O)n1)c1ccc(-n2cccn2)cc1 [Compound 2581], C[C@@H](NC(=O)[C@H](O)[C@@H](O)C(=O)N1CCCC1c1nccs1)c1ccc(-n2cccn2)cc1 (some centres unmarked) [Compound 2600], CC(C)Nc1nc([C@H]2c3ccc(Cl)cc3CCN2C(=O)[C@H](O)[C@@H](O)C(=O)N[C@H](C)c2ccc(-n3cccn3)cc2)cs1 [Compound 2589], C[C@@H](NC(=O)[C@H](O)[C@@H](O)C(=O)N1CCCC1(C)c1ccccc1)c1ccc(-n2cccn2)cc1 (some centres unmarked) [Compound 2235], N#Cc1cc(F)ccc1N1CCC(CNC(=O)[C@H](O)[C@@H](O)C(=O)N2Cc3ccncc3C2)CC1 [Compound 2007], CC(=O)Nc1nc([C@H]2CCCN2C(=O)[C@H](O)[C@@H](O)C(=O)N[C@H](C)c2ccc(-n3cccn3)cc2)cs1 [Compound 2579], C[C@@H](NC(=O)[C@H](O)[C@@H](O)C(=O)N1CCC[C@@H]1c1csc2nccn12)c1ccc(-n2cccn2)cc1 [Compound 2506], C[C@@H](NC(=O)[C@H](O)[C@@H](O)C(=O)N1CCCC1(C)c1csc(N)n1)c1ccc(-n2cccn2)cc1 (some centres unmarked) [Compound 2243], CC#CCOc1cc([C@@H](C)NC(=O)[C@H](O)[C@@H](O)C(=O)N2Cc3cccnc3C2)ccc1-n1cccn1 [Compound 2359], C[C@@H]1CN(c2ccccc2C#N)CCC1CNC(=O)[C@H](O)[C@@H](O)C(=O)N1CCC[C@@H]1c1ccccc1 (some centres unmarked) [Compound 2144], C[C@@H](NC(=O)[C@H](O)[C@@H](O)C(=O)N1CCc2ccccc2[C@@H]1c1csc(N)n1)c1ccc(-n2cccn2)cc1 [Compound 2585], C[C@@H](NC(=O)[C@](C)(O)[C@@H](O)C(=O)N1Cc2cccnc2C1)c1ccc(-n2cccn2)c(OCc2ccccc2)c1 [Compound 2357], C[C@@H](NC(=O)[C@](C)(O)[C@@H](O)C(=O)N1Cc2ccncc2C1)c1ccc(-n2cccn2)cc1 [Compound 2039], C[C@@H](NC(=O)[C@H](O)[C@@H](O)C(=O)N1CCc2cc(Cl)ccc2C1c1ccccc1)c1ccc(-n2cccn2)cc1 (some centres unmarked) [Compound 2444], CC(C)Nc1nc([C@H]2CCCN2C(=O)[C@H](O)[C@@H](O)C(=O)N[C@H](C)c2ccc(-n3cccn3)cc2)cs1 [Compound 2257], C[C@@H](NC(=O)[C@H](O)[C@@H](O)C(=O)N1CCC[C@@H]1c1csc(N)n1)c1ccc(-n2cccn2)cc1 [Compound 2255], CNc1nc(C2(C)CCCN2C(=O)[C@H](O)[C@@H](O)C(=O)N[C@H](C)c2ccc(-n3cccn3)cc2)cs1 (some centres unmarked) [Compound 2244], COc1cc([C@@H](C)NC(=O)[C@](C)(O)[C@@H](O)C(=O)N2Cc3cccnc3C2)ccc1-n1cccn1 [Compound 2355], CNc1nc([C@H]2C=CCN2C(=O)[C@H](O)[C@@H](O)C(=O)N[C@H](C)c2ccc(-n3cccn3)cc2)cs1 [Compound 2250], C[C@@H](NC(=O)[C@H](O)[C@@H](O)C(=O)N1CCc2cc(Cl)c(Cl)cc2C1c1ccccc1)c1ccc(-n2cccn2)cc1 (some centres unmarked) [Compound 2443], C[C@@H](NC(=O)[C@H](O)[C@@H](O)C(=O)N1CCc2cc(Cl)ccc2C1c1cc[nH]n1)c1ccc(-n2cccn2)cc1 (some centres unmarked) [Compound 2596], Cc1nc([C@H]2CCCN2C(=O)[C@H](O)[C@@H](O)C(=O)N[C@H](C)c2ccc(-n3cccn3)cc2)cs1 [Compound 2591], CC(C)Nc1nc([C@@H]2c3ccc(Cl)cc3CCN2C(=O)[C@H](O)[C@@H](O)C(=O)N[C@H](C)c2ccc(-n3cccn3)cc2)cs1 [Compound 2590]

same assay, conditions: TACE, representative compounds, numeric values; read-out: Ki

Ki, 2.7 nM:
O=C(NCc1ccn(Cc2ccccc2Cl)n1)[C@H](O)[C@@H](O)C(=O)N1CCC[C@@H]1c1cccc(Cl)c1

Ki, 0.8 nM:
C[C@@H](NC(=O)[C@H](O)[C@@H](O)C(=O)N1CCC[C@@H]1c1cccc(Cl)c1)c1ccc(-n2cccn2)cc1 [drawing 1304]

Ki, 0.25 nM:
CC#CCOc1cc([C@@H](C)NC(=O)[C@H](O)[C@@H](O)C(=O)N2Cc3cccnc3C2)ccc1-n1cccn1 [drawing 1292]

Ki, 1.4 nM:
CNc1nc([C@H]2C[C@H]3C[C@H]3N2C(=O)[C@H](O)[C@@H](O)C(=O)N[C@H](C)c2ccc(-n3cccn3)cc2)cs1 [drawing 1312], Cc1cccc(C)c1Cc1csc(CNC(=O)[C@H](O)[C@@H](O)C(=O)N2CCCC2c2cccc(CN3CCCC3)c2)n1 (some centres unmarked)

Ki, 0.3 nM:
CCNc1nc(C2c3ccccc3CCN2C(=O)[C@H](O)[C@@H](O)C(=O)N[C@H](C)c2ccc(-n3cccn3)cc2)cs1 (some centres unmarked)

Ki, 2.9 nM:
CC#CCOc1cc([C@@H](C)NC(=O)[C@H](O)[C@@H](O)C(=O)N2CCC[C@@H]2c2csc(NC(C)C)n2)ccc1-n1cccn1

Ki, 1.54 nM:
CC#CCOc1cc([C@@H](C)NC(=O)[C@H](O)[C@@H](O)C(=O)N2CC=CC2c2cccc(Cl)c2)ccc1-n1cccn1 (some centres unmarked) [drawing 1314]

Ki, 0.38 nM:
CNc1nc([C@H]2CCCN2C(=O)[C@H](O)[C@@H](O)C(=O)N[C@H](C)c2ccc(-n3cccn3)cc2)c(S(C)(=O)=O)s1 [drawing 1294]
